Columns and labels:
[1] = Amount of ethanol required to dissolve the drug in propellant/ethanol mixture (visual, first clear solution); type: physicochemical; conditions: for ethanol required to dissolve the drug: 20° C., drug amount equivalent to MDI dose of 50 μg (FP) or 250 μg (BDP); for Ethanol Content in R-134a / Ethanol Content in R-152a: amount required to dissolve the drug completely, BDP 250 μg, FP 50 μg dose
Protocol: A series of glass vials were charged with 0.00869 g (8.69 mg) of fluticasone propionate. R-152a propellant was then added to each vial, the amount being decreased from one vial to the next to compensate for increasing amounts of ethanol. An amount of ethanol was then added to each vial, with the amount being increased in increments from one vial to the next, in order to determine the minimum amount of ethanol required to dissolve the fluticasone propionate in the R-152a/ethanol mixture. […] The amount of ethanol in the R-152a/ethanol mixture was increased from 1% by weight on the total weight of the R-152a/ethanol mixture in 1% w/w increments. After adding the ethanol, each vial was sonicated in an effort to dissolve the drug, stored at 20° C. and then examined visually to determine whether the drug had in fact dissolved. […] It was determined that 5.0% w/w of ethanol was required to dissolve the fluticasone propionate. […] R-152a propellant was then added to each vial, the amount being decreased from one vial to the next to compensate for increasing amounts of ethanol. […] The amount of ethanol in the R-152a/ethanol mixture was increased from 1% by weight on the total weight of the R-152a/ethanol mixture in 1% w/w increments. After adding the ethanol, each vial was sonicated in an effort to dissolve the drug, stored at 20° C. and then examined visually to determine whether the drug had in fact dissolved. […] Exactly the same procedure as described in Example 3 above was used except that R-134a was used as the propellant. It was determined that 13.0% w/w of ethanol (% by weight on the total weight of the R-134a/ethanol mixture) was required to dissolve the fluticasone propionate. […] Exactly the same procedure as described in Example 4 above was used except that R-134a was used as the propellant. […] The drug was weighed directly into standard aluminium 19 mL cans (C128, Presspart, Blackburn, UK), to which an appropriate amount of ethanol was added to aid solubility of the drug on addition of the propellant. The slurry of the drug in ethanol was then sonicated for 60 minutes in order to disperse the drug in the ethanol. The cans were then crimped with a 50 μL valve (Bespak, Kings Lynn, UK) following which R-152a or R-134a as appropriate was filled into the cans through the valve using a manual Pamasol crimper/filler (Pamasol, Switzerland). […] Finally, all the cans were quarantined for 14 days, valve down, at 22° C./44% RH before commencing testing of the final formulations.

[2] = Solubility of drug in liquefied propellant (pressure solubility apparatus, HPLC); type: physicochemical; conditions: stored at 20° C. for 24 hours, n=3
Protocol: An excess of active pharmaceutical ingredient was placed into a pressure cylinder (300 cm^3 stainless steel cylinder from Whitey, Inc.). A vacuum was applied to the cylinder, which was then chilled using liquid nitrogen. Approximately 80 grams of either R-152a or R-134a propellant was charged into the cylinder, which was then stored at 20° C. for 24 hours.
A filtration unit comprising a 15 μm filter in-line with a 5 μm filter was connected to the cylinder containing the excess of drug in propellant. A second receiver pressure cylinder (150 cm^3 stainless steel cylinder from Whitey, Inc.) was exposed to a vacuum and chilled using liquid nitrogen, which was then connected to the filtration unit. Approximately 30 grams of liquid propellant containing drug in excess was passed through the filtration unit and collected in the receiver pressure cylinder.
A modified piece of 3.2 mm (⅛″) tubing was connected to the end of the receiver pressure cylinder, which was then attached to the stem of a continuous valve crimped on to a glass bottle. The 3.2 mm (⅛″) tubing was used to depress the stem of the valve and therefore, enable the contents of the receiver pressure cylinder to be collected in the glass bottle. […] The glass bottle was re-weighed and the mass of drug collected in the DUSA was determined by high performance liquid chromatography (HPLC). […]

Structure (SMILES) | ethanol required to dissolve the drug ([1]; R-134a/ethanol mixture) | ethanol required to dissolve the drug ([1]; R-152a/ethanol mixture) | Ethanol Content in R-134a [1] | Ethanol Content in R-152a [1] | mean drug solubility (± S.D.) ([2]; propellant comprising 100% R-134a) | mean drug solubility (± S.D.) ([2]; propellant comprising 100% R-152a)
CCC(=O)OCC(=O)[C@@]1(OC(=O)CC)[C@@H](C)C[C@H]2[C@@H]3CCC4=CC(=O)C=C[C@]4(C)[C@@]3(Cl)[C@@H](O)C[C@@]21C [beclomethasone dipropionate] | 4.0 % w/w | 2.0 % w/w | 4.0 % w/w | 2.0 % w/w |  | 
CCC(=O)O[C@]1(C(=O)SCF)[C@H](C)C[C@H]2[C@@H]3C[C@H](F)C4=CC(=O)C=C[C@]4(C)[C@@]3(F)[C@@H](O)C[C@@]21C [fluticasone propionate] | 13.0 % w/w | 5.0 % w/w | 13.0 % w/w | 5.0 % w/w | 14.27 ± 1.66 µg/g | 73.55 ± 3.98 µg/g
